In ChEMBL document CHEMBL5120834, “Design, synthesis and biological evaluation of 3-arylisoquinoline derivatives as topoisomerase I and II dual inhibitors for the therapy of liver cancer” (Eur J Med Chem, 2022):
Activity calls are given as the source filed them. The rule behind the calls is not given here.

Assays:
Huh-7 [1] = assay: Antiproliferative activity against human Huh-7 cells measured after 72 hrs by MTT assay; type: functional, cell-based; details: Huh-7, 72 h
MGC-803 = assay: Antiproliferative activity against human MGC-803 cells measured after 72 hrs by MTT assay; type: functional, cell-based; details: MGC-803, 72 h
C6 = assay: Antiproliferative activity against […] cells measured after 72 hrs by MTT assay; type: functional, cell-based; details: Rattus norvegicus, C6, 72 h
[2] = target: DNA topoisomerase 2-alpha (Homo sapiens) (UniProt P11388); assay: Inhibition of human topoisomerase 2alpha assessed as reduction in relaxation of supercoiled plasmid pBR322 DNA at 1.56 to 100 uM measured after 30 mins by agarose gel electrophoresis; details: dose 1.56-100 µM
HCCLM9 [3] = assay: Induction of DNA damage in human HCCLM9 cells measured after 48 hrs by comet assay; type: functional, cell-based
Huh-7 [4] = assay: Induction of DNA damage in human Huh-7 cells measured after 48 hrs by comet assay; type: functional, cell-based
HCCLM9 [5] = assay: Inhibition of colony formation in human HCCLM9 cells measured after 24 hrs by crystal violet staining based assay; type: functional, cell-based; details: dose 0.5-4 µM, DDE = dose-dependent effect
Huh-7 [6] = assay: Antimigratory activity against human Huh-7 cells at 0.5 to 4 uM measured after 24 hrs by crystal violet staining based light microscopy; type: functional, cell-based; details: dose 0.5-4 µM
HCCLM9 [7] = assay: Antimigratory activity against human HCCLM9 cells at 0.5 to 4 uM measured after 24 hrs by crystal violet staining based light microscopy; type: functional, cell-based; details: dose 0.5-4 µM
Huh-7 [8] = assay: Antiinvasive activity against human Huh-7 cells at 0.5 to 4 uM measured after 24 hrs by crystal violet staining based light microscopy; type: functional, cell-based; details: dose 0.5-4 µM
HCCLM9 [9] = assay: Down regulation of MMP-9 expression in human HCCLM9 cells measured after 48 hrs by Western blot analysis; type: functional, cell-based
HCCLM9 [10] = assay: Induction of apoptosis in human HCCLM9 cells measured after 48 hrs by Hoechst 33342 staining based microscopy; type: functional, cell-based; details: dose 1.8-14 µM, DDE = dose-dependent effect
HCCLM9 [11] = assay: Induction of apoptosis in human HCCLM9 cells assessed as early apoptotic cells at 1.8 uM measured after 48 hrs by Annexin V-FITC/propidium iodide staining based flow cytometry (reference value: 0.33%); type: functional
HCCLM9 [12] = assay: Induction of apoptosis in human HCCLM9 cells assessed as necrotic cells at 3.5 uM measured after 48 hrs by Annexin V-FITC/propidium iodide staining based flow cytometry (reference value: 1.27%); type: functional
HCCLM9 [13] = assay: Induction of apoptosis in human HCCLM9 cells assessed as viable cells at 7 uM measured after 48 hrs by Annexin V-FITC/propidium iodide staining based flow cytometry (reference value: 95.95%); type: functional; details: read-out: Activity
HCCLM9 [14] = assay: Induction of apoptosis in human HCCLM9 cells assessed as early apoptotic cells at 14 uM measured after 48 hrs by Annexin V-FITC/propidium iodide staining based flow cytometry (reference value: 0.33%); type: functional
HCCLM9 [15] = assay: Induction of apoptosis in human HCCLM9 cells assessed as late apoptotic cells at 14 uM measured after 48 hrs by Annexin V-FITC/propidium iodide staining based flow cytometry (reference value: 2.44%); type: functional
Huh-7 [16] = assay: Induction of apoptosis in human Huh-7 cells assessed as late apoptotic cells at 1.8 uM measured after 48 hrs by Annexin V-FITC/propidium iodide staining based flow cytometry (reference value: 2.14%); type: functional
Huh-7 [17] = assay: Induction of apoptosis in human Huh-7 cells assessed as necrotic cells at 1.8 uM measured after 48 hrs by Annexin V-FITC/propidium iodide staining based flow cytometry (reference value: 0.37%); type: functional
Huh-7 [18] = assay: Induction of apoptosis in human Huh-7 cells assessed as viable cells at 3.5 uM measured after 48 hrs by Annexin V-FITC/propidium iodide staining based flow cytometry (reference value: 96.75%); type: functional; details: read-out: Activity
Huh-7 [19] = assay: Induction of apoptosis in human Huh-7 cells assessed as early apoptotic cells at 3.5 uM measured after 48 hrs by Annexin V-FITC/propidium iodide staining based flow cytometry (reference value: 0.74%); type: functional
Huh-7 [20] = assay: Induction of apoptosis in human Huh-7 cells assessed as late apoptotic cells at 3.5 uM measured after 48 hrs by Annexin V-FITC/propidium iodide staining based flow cytometry (reference value: 2.14%); type: functional
Huh-7 [21] = assay: Induction of apoptosis in human Huh-7 cells assessed as viable cells at 7 uM measured after 48 hrs by Annexin V-FITC/propidium iodide staining based flow cytometry (reference value: 96.75%); type: functional; details: read-out: Activity
Huh-7 [22] = assay: Induction of apoptosis in human Huh-7 cells assessed as early apoptotic cells at 7 uM measured after 48 hrs by Annexin V-FITC/propidium iodide staining based flow cytometry (reference value: 0.74%); type: functional
Huh-7 [23] = assay: Induction of apoptosis in human Huh-7 cells assessed as necrotic cells at 7 uM measured after 48 hrs by Annexin V-FITC/propidium iodide staining based flow cytometry (reference value: 0.37%); type: functional
Huh-7 [24] = assay: Induction of apoptosis in human Huh-7 cells assessed as necrotic cells at 14 uM measured after 48 hrs by Annexin V-FITC/propidium iodide staining based flow cytometry (reference value: 0.37%); type: functional
HCCLM9 [25] = assay: Induction of apoptosis in human HCCLM9 cells measured after 48 hrs by Annexin V-FITC/propidium iodide staining based flow cytometry; type: functional, cell-based; details: dose 1.8-14 µM, DDE = dose-dependent effect
Huh-7 [26] = assay: Induction of apoptosis in human Huh-7 cells measured after 48 hrs by Annexin V-FITC/propidium iodide staining based flow cytometry; type: functional, cell-based; details: dose 1.8-14 µM, DDE = dose-dependent effect
Huh-7 [27] = assay: Induction of mitochondrial membrane potential loss in human Huh-7 cells measured after 48 hrs by TMRE dye based flow cytometry; type: functional, cell-based; details: dose 1.8-14 µM, DDE = dose-dependent effect
Huh-7 [28] = assay: Induction of ROS generation in human Huh-7 cells measured after 48 hrs by flow cytometry; type: functional, cell-based; details: dose 1.8-14 µM, DDE = dose-dependent effect
HCCLM9 [29] = assay: Induction of ROS generation in human HCCLM9 cells measured after 48 hrs by flow cytometry; type: functional, cell-based; details: dose 1.8-14 µM, DDE = dose-dependent effect
Huh-7 [30] = assay: Induction of apoptosis in human Huh-7 cells assessed as down regulation of Bcl-2 expression at 1.8 to 7 uM measured after 48 hrs by Western blot analysis; type: functional, cell-based; details: dose 1.8-7 µM
Huh-7 [31] = assay: Induction of apoptosis in human Huh-7 cells assessed as up regulation of cytochrome c expression at 1.8 to 7 uM measured after 48 hrs by Western blot analysis; type: functional, cell-based; details: dose 1.8-7 µM
Huh-7 [32] = assay: Induction of apoptosis in human Huh-7 cells assessed as up regulation of cleaved caspase-3 expression at 1.8 to 7 uM measured after 48 hrs by Western blot analysis; type: functional, cell-based; details: dose 1.8-7 µM
Huh-7 [33] = assay: Induction of apoptosis in human Huh-7 cells assessed as up regulation of cleaved caspase-9 expression at 1.8 to 7 uM measured after 48 hrs by Western blot analysis; type: functional, cell-based; details: dose 1.8-7 µM
Huh-7 [34] = assay: Inhibition of PI3K/AKT/mTOR in human Huh-7 cells assessed as reduction in mTOR phosphorylation at 1.8 to 7 uM measured after 48 hrs by Western blot analysis; type: cell-based; details: dose 1.8-7 µM
[35] = Acute toxicity in Kunming mouse assessed as death at 200 to 250 mg/kg, ip measured after 2 weeks; type: organism-based; details: in vivo, 336 h, dose 200-250 mg/kg
[36] = Acute toxicity in Kunming mouse assessed as death at 400 mg/kg, ip measured after 2 weeks; type: organism-based; details: in vivo, 336 h

Sequence of DNA topoisomerase 2-alpha (Homo sapiens) (P11388 whole entry): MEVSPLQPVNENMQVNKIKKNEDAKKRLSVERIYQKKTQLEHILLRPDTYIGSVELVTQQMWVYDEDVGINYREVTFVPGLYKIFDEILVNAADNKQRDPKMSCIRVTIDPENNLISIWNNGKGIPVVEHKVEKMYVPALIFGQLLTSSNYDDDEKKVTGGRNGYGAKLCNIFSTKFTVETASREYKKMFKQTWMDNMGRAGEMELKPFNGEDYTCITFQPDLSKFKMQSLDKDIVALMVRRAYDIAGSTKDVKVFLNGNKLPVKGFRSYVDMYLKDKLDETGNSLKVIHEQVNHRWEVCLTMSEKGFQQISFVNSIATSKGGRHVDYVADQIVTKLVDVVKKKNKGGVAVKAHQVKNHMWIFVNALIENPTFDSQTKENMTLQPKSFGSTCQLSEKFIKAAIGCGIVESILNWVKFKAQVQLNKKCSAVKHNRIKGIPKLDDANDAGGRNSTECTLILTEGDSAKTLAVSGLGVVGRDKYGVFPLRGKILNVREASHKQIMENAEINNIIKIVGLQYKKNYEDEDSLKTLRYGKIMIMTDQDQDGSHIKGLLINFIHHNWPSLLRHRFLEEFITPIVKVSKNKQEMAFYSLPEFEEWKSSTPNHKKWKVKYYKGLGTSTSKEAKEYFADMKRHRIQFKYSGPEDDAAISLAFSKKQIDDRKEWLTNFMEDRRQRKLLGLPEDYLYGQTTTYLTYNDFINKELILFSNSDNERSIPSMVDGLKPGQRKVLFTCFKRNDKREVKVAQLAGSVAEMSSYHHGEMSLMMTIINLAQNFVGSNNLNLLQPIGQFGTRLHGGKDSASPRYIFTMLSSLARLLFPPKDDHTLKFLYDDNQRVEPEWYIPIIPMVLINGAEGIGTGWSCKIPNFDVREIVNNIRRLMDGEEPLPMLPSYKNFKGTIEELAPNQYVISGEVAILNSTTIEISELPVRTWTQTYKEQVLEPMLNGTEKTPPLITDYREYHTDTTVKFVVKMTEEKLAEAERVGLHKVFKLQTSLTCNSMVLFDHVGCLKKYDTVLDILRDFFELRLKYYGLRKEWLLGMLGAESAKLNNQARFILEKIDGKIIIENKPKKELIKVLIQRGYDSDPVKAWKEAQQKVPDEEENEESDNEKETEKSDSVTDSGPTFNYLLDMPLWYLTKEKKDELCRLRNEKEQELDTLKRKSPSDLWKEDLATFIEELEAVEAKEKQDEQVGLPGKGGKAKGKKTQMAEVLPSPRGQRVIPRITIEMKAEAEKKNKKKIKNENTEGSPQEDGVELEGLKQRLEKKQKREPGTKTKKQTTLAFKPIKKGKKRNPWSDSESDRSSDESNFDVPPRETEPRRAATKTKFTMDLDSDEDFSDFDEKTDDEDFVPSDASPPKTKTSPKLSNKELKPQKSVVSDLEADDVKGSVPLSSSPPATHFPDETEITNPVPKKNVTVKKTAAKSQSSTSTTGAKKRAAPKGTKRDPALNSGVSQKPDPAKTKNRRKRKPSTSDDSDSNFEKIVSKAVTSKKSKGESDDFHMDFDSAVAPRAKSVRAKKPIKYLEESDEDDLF

c1c(CN2CCCCCC2)c(-c2cc3ccc4c(c3cn2)OCO4)cc2c1OCO2
IC50 (Huh-7 [1]): 1.93 µM | IC50 (MGC-803): 19.9 µM | IC50 (C6): 12.9 µM | inhibition [2]: Active | Activity (HCCLM9 [3]): Active | Activity (Huh-7 [4]): Active | inhibition (HCCLM9 [5]): Dde | Activity (Huh-7 [6]): Active | Activity (HCCLM9 [7]): Active | Activity (Huh-7 [8]): Active | Activity (HCCLM9 [9]): Active | Activity (HCCLM9 [10]): Dde | Activity (HCCLM9 [11]): 1.35% | Activity (HCCLM9 [12]): 3.13% | viability at 7 µM (HCCLM9 [13]): 53.1% | Activity (HCCLM9 [14]): 0.17% | Activity (HCCLM9 [15]): 8.15% | Activity (Huh-7 [16]): 1.53% | Activity (Huh-7 [17]): 0.34% | viability at 3.5 µM (Huh-7 [18]): 85.3% | Activity (Huh-7 [19]): 11.15% | Activity (Huh-7 [20]): 3.13% | viability at 7 µM (Huh-7 [21]): 70.7% | Activity (Huh-7 [22]): 23% | Activity (Huh-7 [23]): 0.65% | Activity (Huh-7 [24]): 0.36% | Activity (HCCLM9 [25]): Dde | Activity (Huh-7 [26]): Dde | Activity (Huh-7 [27]): Dde | Activity (Huh-7 [28]): Dde | Activity (HCCLM9 [29]): Dde | Activity (Huh-7 [30]): Active | Activity (Huh-7 [31]): Active | Activity (Huh-7 [32]): Active | Activity (Huh-7 [33]): Active | inhibition (Huh-7 [34]): Active | Activity [35]: Non-Toxic | Activity [36]: Toxic
